# According to patent US20230123863A1, “A GLIA CELL AND NEURON CO-CULTURE SYSTEM AND METHOD” (National Yang-Ming University, priority 2020, published 2023):
# How the values were obtained:
# [1] = biological target: T1, aryl hydrocarbon receptor (AHR) (Mus musculus, UniProt P30561); details: WT mice, cited from earlier work
# T1 construct: the brains of adult mice were used to study the effect of aryl hydrocarbon receptor modulation; from tissue; host or cells: adult mouse brain, peri-infarct cortex (in vivo)
# T1 sequence (P30561 10-848): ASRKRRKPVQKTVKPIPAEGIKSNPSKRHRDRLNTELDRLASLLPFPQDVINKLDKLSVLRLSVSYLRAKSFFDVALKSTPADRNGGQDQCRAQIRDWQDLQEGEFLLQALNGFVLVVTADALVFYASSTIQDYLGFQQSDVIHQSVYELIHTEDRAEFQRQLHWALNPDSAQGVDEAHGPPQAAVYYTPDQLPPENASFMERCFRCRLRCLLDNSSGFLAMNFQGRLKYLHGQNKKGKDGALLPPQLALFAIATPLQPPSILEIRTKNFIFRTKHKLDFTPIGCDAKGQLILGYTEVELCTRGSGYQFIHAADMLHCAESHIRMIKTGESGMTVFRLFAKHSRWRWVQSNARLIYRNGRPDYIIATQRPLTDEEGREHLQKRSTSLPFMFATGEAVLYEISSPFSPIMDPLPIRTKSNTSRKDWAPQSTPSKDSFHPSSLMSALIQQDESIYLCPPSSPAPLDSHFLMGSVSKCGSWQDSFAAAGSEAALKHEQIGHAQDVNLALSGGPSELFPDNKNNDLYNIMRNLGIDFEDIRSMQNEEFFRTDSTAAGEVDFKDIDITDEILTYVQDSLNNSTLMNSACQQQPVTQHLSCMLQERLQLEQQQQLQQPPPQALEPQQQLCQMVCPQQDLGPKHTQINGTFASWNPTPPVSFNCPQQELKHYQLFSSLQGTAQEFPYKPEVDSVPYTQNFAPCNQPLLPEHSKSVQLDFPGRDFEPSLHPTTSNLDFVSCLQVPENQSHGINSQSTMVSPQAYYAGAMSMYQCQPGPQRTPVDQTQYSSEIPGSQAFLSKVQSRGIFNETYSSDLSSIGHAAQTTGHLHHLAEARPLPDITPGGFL
# Oligodendrocytes = test: excitotoxic NMDA treatment of oligodendrocytes in GN mix culture (RIP/NF200 staining); assay type: cell-based, mouse; details: NM:GCM 1:1 medium, 5 μM NMDA at 14 DIV for 24 hour
# Experimental: Oligodendrocytes obtained from mouse primary neonatal brain cells cultivated using the GN culture compositions provided in table 4 were treated with 5 μM NMDA at 14 DIV for 24 hour.
# The cell nuclei are characterized by immunostaining shown in blue. […] Moreover, the response of oligodendrocytes to excitotoxic NMDA treatment can further mimic excitotoxicity-induced demyelination.
# mouse hippocampi = test: intraperitoneal LPS injection, astrocyte and microglia plasticity in hippocampi; assay type: in vivo; details: LPS i.p. for 7 days at 3 mg/kg body weight per injection, vs saline
# Experimental: To validate the results of in vitro LPS treatment of the present invention, LPS was injected intraperitoneally in mice for 7 days at 3 mg/kg body weight per injection and the astrocyte and microglia plasticity in mouse hippocampi examined. […] Astrocytes were marked with GFAP and colored in green, while cell nuclei were marked with DAPI and colored in blue.
# Microglia were marked with Iba-1 and colored in green, while cell nuclei were marked with DAPI and colored in blue.
# [2] = tested on: rat cerebral cortex cells; test: LPS neuroinflammation in cerebral cortex cells cultured in the media of Table 3; assay type: cell-based; details: for percentages of MAP2 positive cells in the total population (neurons): 1 μg/mL LPS for 24 hours on day 13
# Source text: The efficacies of simulating in vivo cell morphology, cell interactions and responses to stimuli in vitro using mGNCM of different ratios of modified neuron medium (mNM) and glia culture medium (GCM) were compared, 1:1:, 2:1 and GCM only groups, and the GCM only group comprising only GCM and 10% FBS as shown in Table 3 above.
# The effects of neuroinflammation simulation of rat cerebral cortex cells grown in vitro using the three embodiments of mGNCM of Table 3 were examined. Cells obtained from rat cerebral cortex were cultured in vitro for 13 days using the three culture media above, then treated with 1 μg/mL of lipopolysaccharides (LPS) for 24 hours on day 13 to trigger inflammation. Following LPS treatment, immunostaining was performed to observe cell population, morphology, and response to inflammatory stimulus.
# The immunostaining images of FIG. 5 show neuronal population and response to LPS stimulation, wherein CTL represents control groups (not subjected to LPS treatment) and LPS represents groups treated with LPS to induce neuroinflammation. The images show astrocyte cytoskeleton marked with GFAP and colored in red, neuron dendrites marked with MAP2 and colored in green, as well as cell nuclei marked with DAPI and colored in blue. FIGS. 5A1-5A3 and 5B1-5B3 show cells cultured with GCM only, FIGS. 5C1-5C3 and 5D1-5D3 show cells cultured with 1:1 mNM and GCM, while FIGS. 5E1-5E3 and 5F1-5F3 show cells cultured with 2:1 mNM and GCM. The GCM only group comprises fewer neurons, and the cells are smaller and unhealthier in both CTL and LPS treatment groups.
# [3] = tested on: cells extracted from rat cerebral cortex; test: LPS neuroinflammation and cell type population in glia cell and neuron co-culture in the media of Table 4; assay type: cell-based
# Experimental: To further examine the effects of various embodiments of mGNCM with different ratios of mNM and GCM of the present invention on cell type population and morphology of rat glia cells and neurons co-culture, six cell culture media were prepared to the specifications of Table 4.
# On postnatal day 0 (P0), cells extracted from rat cerebral cortex were inoculated in each of the cell culture media of Table 4. Following 14 days of in vitro cultivation, immunostaining was performed on the control groups (CTL) to aid in the observation of cell type ratios, specifically of neurons, astrocytes, and microglia, and oligodendrocytes as well as cell morphology. Cultures of the LPS groups (LPS) were subjected to inflammatory stimulation via 1 μg/mL LPS at 13 days in vitro. After another 24 hours, the LPS groups were subjected to immunostaining as well, for the observation of cell morphology and cell count.
# [4] = tested on: dorsal hippocampus of male SD adult rats; test: kainic acid i.c.v. injection-induced hippocampal damage, NeuN, MAP2 and GLT-1 immunostaining; assay type: in vivo, rat
# Experimental: To validate the in vitro results, the effect of sEH inhibition on neuronal loss in the hippocampus after excitotoxic insult was investigated in vivo. First examined was the effect of CNS administration of AUDA on kainic acid (KA), an epileptic seizure-inducing substance, i.c.v. injection-induced hippocampal damage in male SD adult rats. The extent of neuronal damage in the dorsal hippocampus was examined 24 h after the KA injection by immunostaining with NeuN and MAP2 for neuronal nuclei and dendrites, respectively.
# Eight-week-old male SD rats were subjected to unilateral i.c.v. injection of saline, KA, or KA with the sEH inhibitor AUDA. Rat brains were harvested 24 h after the injection for immunohistochemistry.
# NeuN^+ cells of each hippocampal subregion were determined by counting the number of NeuN^+/DAPI^+ cells and then normalized with respective saline treatment group. MAP2 area was determined by the percentage of the immunoreactive area in each hippocampal region of interest and then normalized with the respective saline treatment group. […] Scale bar=100 μm. When compared with FIGS. 20-23, it can be seen that the results of in vivo trials were more similar to those of the GN culture than the NE culture.
# FIG. 27 is a quantitative analysis of images in FIG. 25. GLT-1 area was determined by the percentage of the immunoreactive area in each hippocampal region of interest and then normalized with the respective saline treatment group. Note that GLT-1 immunoreactivity was depleted in the stratum pyramidale (SP) and stratum lucidum (SL) layers of CA3 in the KA treatment group, and the effect was attenuated by the AUDA pretreatment.
# [5] = tested on: Primary rat cortical GN mix cultures; test: NMDA-induced neurotoxicity in primary cortical glia-neuron (GN) mix culture, MAP2 and TUNEL staining; assay type: cell-based; details: 9 DIV, 30 min pretreatment with 0.1 μM 14,15-EET or 10 μM AUDA, 24 h
# Experimental: Primary cortical NE cultures were prepared from embryonic day 17 SD fetal rats. The cultures were maintained in Neurobasal™ medium, and 9-10 days in vitro (DIV) culture was used for the study. Primary astrocyte cultures were prepared from SD rat pups at P1-2, with the purified astrocytes grown in 50% DMEM/50% Neurobasal™ medium containing heparin-binding EGF-like growth factor (HBEGF) or GNCM wherein GCM and NM are at a ratio of 1:1. Primary glia-neuron mix cultures were prepared from P0 rat brains. The harvested cerebral cortex was mechanically triturated in glia culture medium (GCM), comprising DMEM supplemented with 10% FBS. The mixture was stationed at room temperature for 1 minute, and the supernatant centrifuged at 1,500 rpm to obtain the cell pellet. The pellet was resuspended in GCM and seeded onto 24-well plates coated with poly-L-lysine (0.1 mg/mL). The culture medium was replaced with an embodiment of the GNCM medium of the present invention comprising a 1:1 mixture of GCM and B-27-containing Neurobasal™ 1 hour after the initial seeding.
# The day of cell plating was considered as 0 DIV, and 9-10 DIV cultures were used for the experiments.
# Primary rat cortical GN mix and NE cultures at 9 days in vitro were pretreated with 0.1 μM 14,15-EET, 10 μM 12-(3-adamantan-1-yl-ureido)-dodecanoic acid (AUDA), or vehicle for 30 min, and then treated with or without 14,15-epoxyeicosa-5(Z)-enoic acid (14,15-EEZE) (EZ) or N-methyl-D-aspartate (NMDA). Representative immunofluorescent images of MAP2 and TUNEL staining in GN mix and NE cultures were treated as indicated for 24 h. Total cell nuclei were counterstained with DAPI. Scale bar=50 μm.
# Neuron dendrites were marked with MAP2 and colored in red, cell nuclei were marked with DAPI and colored in blue, while cell death was marked with TUNEL and colored in green.
# Both MAP2^+ neurite density and TUNEL^+ cells were normalized by the total DAPI number in each quantified microscopic field.
# [6] = TMF 5 mg/kg/day intraperitoneally, 48 h after MCAO
# [7] = all groups except for the GCM only group, 1 μg/mL LPS, 24 hours
# [8] = DGh and CA3, KA i.c.v. vs saline, 24 h
# [9] = DGh and CA3, unilateral i.c.v. injection, 24 h after injection
compound,measurement,setting,value
"COc1ccc(-c2cc(=O)c3cc(OC)ccc3o2)c(OC)c1 [TMF, 6,2′,4′-trimethoxyflavone]",GFAP-positive astrogliosis at the peri-infarct cortex after MCAO,[1]; [6],markedly decreased
same,Iba1-positive microgliosis at the peri-infarct cortex after MCAO,[1]; [6],markedly decreased
same,AHR immunoreactivity colocalized within Iba1-positive microglia and GFAP-positive astrocytes after MCAO,"[1]; TMF-treated vs vehicle-treated, peri-infarct cortex",markedly decreased
"CN[C@H](CC(=O)O)C(=O)O [NMDA, N-methyl-D-aspartate]",oligodendrocyte process extension and arborization,Oligodendrocytes,disrupts
lipopolysaccharides [LPS],astrocyte plasticity (GFAP) in hippocampal CA1 and CA3,mouse hippocampi,induced astrocyte hypertrophy and proliferation
same,microglia plasticity (Iba-1) in hippocampal CA1,mouse hippocampi,induced microglial hypertrophy and proliferation
same,astrocyte hypertrophy (GFAP),"[2]; 1:1 group and 2:1 group, 1 μg/mL LPS for 24 hours",can be found
same,microglia cell density and cell size (Iba1),"[2]; 1:1 group, 1 μg/mL LPS for 24 hours",marked increase
same,percentages of MAP2 positive cells in the total population (neurons),[2]; 1:1 group,induces neuronal loss
same,percentages of MAP2 positive cells in the total population (neurons),[2]; GCM only and 2:1 groups,not affected in this way
same,astrocyte hypertrophy (GFAP),"[2]; GCM only group, 1 μg/mL LPS for 24 hours",not observed
same,"Iba1 positive area per cell, control vs LPS groups","[3]; 1:1, 2:1, and 4:1 groups, 1 μg/mL LPS, 24 hours",significant differences
same,percentage of neurons in total cells (MAP2-circled cells in total DAPI),"[3]; 2:1 mGNCM group, 1 μg/mL LPS, 24 hours",significant neuronal loss
same,microglia morphology (Iba1),[3]; [7],induces microglial hypertrophy (microgliosis)
same,percentage of neurons in total cells (MAP2-circled cells in total DAPI),[3]; [7],reduced
same,oligodendrocyte (OL) cell density,"[3]; different groups of GN mix cultures, 1 μg/ml LPS",does not affect
same,percentage of astrocytes in total cells (GFAP-circled cells in total DAPI),"[3]; groups of Table 4, 1 μg/mL LPS, 24 hours",does not cause significant proliferation or death of astrocytes
same,oligodendrocyte process shrinkage,"[3]; mNM:GCM 0.5:1 and 1:1 media, 1 μg/ml LPS",can be observed
same,percentage of microglia in total cells (Iba1 positive cells in total DAPI),"[3]; mNM:GCM 1:1 medium only, 1 μg/mL LPS, 24 hours",induces significant microglia proliferation
same,microglia number (Iba1 images),"[3]; mNM:GCM 2:1 co-culture system, 1 μg/mL LPS, 24 hours",induces an increase of microglia
same,astrocyte morphology (GFAP),"[3]; media of Table 4, 1 μg/mL LPS at 13 DIV, 24 hours",induces astrocyte hypertrophy and process arborization
"C=C(C)[C@H]1CN[C@H](C(=O)O)[C@H]1CC(=O)O [KA, kainic acid]",MAP2+ dendrite area,[4]; [8],significantly reduced
same,NeuN+ neurons,[4]; [8],significantly reduced
same,GLT-1 immunoreactivity,"[4]; SP and SL layers of CA3, KA treatment group",depleted
"O=C(O)CCCCCCCCCCCNC(=O)NC12CC3CC(CC(C3)C1)C2 [AUDA, 12-(3-adamantan-1-yl-ureido)-dodecanoic acid]",KA-induced MAP2+ dendrite damage,[4]; [9],significantly attenuated
same,KA-induced NeuN+ cell loss,[4]; [9],significantly attenuated
same,KA-induced depletion of GLT-1 immunoreactivity,"[4]; SP and SL layers of CA3, AUDA pretreatment",attenuated
same,NMDA-induced MAP2+ neurite reduction,[5],significantly attenuated
same,NMDA-induced cell death (TUNEL+ cells),[5],significantly attenuated
"CCCCCC1OC1CC=CCC=CCC=CCCCC(=O)O (stereo not shown) [14,15-EET, 14,15-epoxyeicosatrienoic acid]",NMDA-induced MAP2+ neurite reduction,[5],significantly attenuated
same,NMDA-induced cell death (TUNEL+ cells),[5],significantly attenuated
